34 compounds from US8134015B2, “Compound inhibiting in vivo phosphorous transport and medicine containing the same” (Kyowa Hakko Kirin Co., Ltd., priority 2003, dated 2012) can be followed below.

Molecules are shown by their SMILES. Where a name gives a salt, the structure may show the parent alone.

For orientation: IC50 means the concentration that inhibits the measured activity by half. For orientation: inhibition means how much of the control response was suppressed. Low values mean little suppression, high ones strong suppression.

The assay addresses T1, rat NaPi-2b (Rattus norvegicus, UniProt Q9JJ09).
T1 construct: expressed in transfected cells; host or cells: Xenopus oocytes injected with cRNA
T1 sequence (Q9JJ09 1-695): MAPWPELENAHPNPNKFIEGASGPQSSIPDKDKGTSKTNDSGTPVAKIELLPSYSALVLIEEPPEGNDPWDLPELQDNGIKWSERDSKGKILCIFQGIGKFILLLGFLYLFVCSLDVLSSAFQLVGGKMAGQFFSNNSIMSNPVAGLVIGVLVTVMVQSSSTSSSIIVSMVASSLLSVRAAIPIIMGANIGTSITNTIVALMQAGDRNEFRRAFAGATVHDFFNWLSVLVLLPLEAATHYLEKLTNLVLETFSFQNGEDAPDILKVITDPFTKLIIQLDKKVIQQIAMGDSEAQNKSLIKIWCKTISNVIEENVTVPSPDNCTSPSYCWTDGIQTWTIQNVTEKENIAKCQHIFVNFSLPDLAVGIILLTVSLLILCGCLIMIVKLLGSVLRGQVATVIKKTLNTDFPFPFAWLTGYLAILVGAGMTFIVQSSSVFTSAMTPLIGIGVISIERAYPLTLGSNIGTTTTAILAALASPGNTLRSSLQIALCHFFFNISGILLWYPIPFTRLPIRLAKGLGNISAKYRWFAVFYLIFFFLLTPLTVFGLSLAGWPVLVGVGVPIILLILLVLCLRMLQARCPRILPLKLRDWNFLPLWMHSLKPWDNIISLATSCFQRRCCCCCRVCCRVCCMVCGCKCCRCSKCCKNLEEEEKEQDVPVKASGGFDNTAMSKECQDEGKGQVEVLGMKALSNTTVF
As to the kind of experiment: Sodium-dependent phosphate uptake of Xenopus oocytes which expressed NaPi-2b (32P). The settings on record: for IC50: Xenopus oocytes expressing rat NaPi-2b, 32P radioactive phosphorus, read-out: IC50 (phosphate uptake inhibitory activity); for inhibition at 300 µM: phosphate uptake, oocytes expressing rat NaPi-2b, determined from inhibition curve. Format: cell-based. In a few lines: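 Read-out is 32P phosphate uptake into Xenopus oocytes expressing rat intestinal NaPi-2b (cRNA injection, 2-day culture). Inhibition at 300 μM and 100 μM was derived from a single inhibition curve and given as percent.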

In the case of `COc1ccc(C(=O)Nc2ccc(Br)cc2C(=O)N/N=C/c2cc(C)c(C)o2)cc1OC` [Compound 202, N-[4-Bromo-2-(4,5-dimethyl-furan-2-ylmethylene-hydrazinocarbonyl)-phenyl]-3,4-dimethoxy-benzamide], the 50% inhibitory concentration (IC50) amounted to 3.14 µM. As to `Cc1ccc(/C=N/NC(=O)c2ccccc2NC(=O)c2ccncc2)cc1` [Compound 203, N-[2-(4-Methyl-benzylidene-hydrazinocarbonyl)-phenyl]-isonicotinamide hydrochloride], the IC50 was below 3 µM. On to `COc1ccc(C(=O)Nc2ccc(I)cc2C(=O)N/N=C/c2cccc(F)c2)cc1OC` [Compound 204, N-[2-(3-Fluoro-benzylidene-hydrazinocarbonyl)-4-iodo-phenyl]-3,4-dimethoxy-benzamide], for which the half-inhibitory concentration (IC50) was below 3 µM. `COc1ccc(C(=O)Nc2ccc(I)cc2C(=O)N/N=C/c2ccc(F)cc2)cc1OC` [Compound 205, N-[2-(4-Fluoro-benzylidene-hydrazinocarbonyl)-4-iodo-phenyl]-3,4-dimethoxy-benzamide]: the IC50 is below 3 µM. `COc1ccc(C(=O)Nc2ccc(I)cc2C(=O)N/N=C/c2cccc(C)c2)cc1OC` [Compound 206, N-[4-Iodo-2-(3-methyl-benzylidene-hydrazinocarbonyl)-phenyl]-3,4-dimethoxy-benzamide]: the IC50 is below 3 µM. For `COc1ccc(C(=O)Nc2ccc(I)cc2C(=O)N/N=C/c2ccc(C)cc2)cc1OC` [Compound 207, N-[4-Iodo-2-(4-methyl-benzylidene-hydrazinocarbonyl)-phenyl]-3,4-dimethoxy-benzamide], the IC50 was below 1 µM. As to `COc1ccc(C(=O)Nc2ccc(I)cc2C(=O)N/N=C/c2ccc(C)c(C)c2)cc1OC` [Compound 208, N-[2-(3,4-Dimethyl-benzylidene-hydrazinocarbonyl)-4-iodo-phenyl]-3,4-dimethoxy-benzamide], the IC50 is below 0.3 µM. Consider `COc1ccc(C(=O)Nc2ccc(I)cc2C(=O)N/N=C/c2ccc(Cl)c(C(F)(F)F)c2)cc1OC` [Compound 209, N-[2-(4-Chloro-3-trifluoromethyl-benzylidene-hydrazinocarbonyl)-4-iodo-phenyl]-3,4-dimethoxy-benzamide], for which the IC50 was below 1 µM. For the compound `Cn1cccc1/C=N/NC(=O)c1ccccc1NC(=O)c1ccncc1` [Compound 210, N-[2-(1-Methyl-1H-pyrrol-2-ylmethylene-hydrazinocarbonyl)-phenyl]-isonicotinamide], the concentration for half-maximal inhibition (IC50) was found to be 35 µM. For the compound `Cn1cccc1/C=N/NC(=O)c1cc(Br)ccc1NC(=O)c1cccnc1` [Compound 211, N-[4-Bromo-2-(1-methyl-1H-pyrrol-2-ylmethylene-hydrazinocarbonyl)-phenyl]-nicotinamide], the IC50 worked out at 69.1 µM. On the same count and under the same terms, as for `Cn1cccc1/C=N/NC(=O)c1cc(Cl)ccc1NC(=O)c1cccnc1` [Compound 212, N-[4-Chloro-2-(1-methyl-1H-pyrrol-2-ylmethylene-hydrazinocarbonyl)-phenyl]-nicotinamide], the figure is 71.3 µM; as for `COc1ccc(C(=O)Nc2ccccc2C(=O)N/N=C(\C)c2cccc(F)c2)cc1OC` [Compound 213, N-{2-[1-(3-Fluoro-phenyl)-ethylidene-hydrazinocarbonyl]-phenyl}-3,4-dimethoxy-benzamide], 16.6 µM; as for `COc1ccc(C(=O)Nc2ccc(Br)cc2C(=O)N/N=C(\C)c2cccc(F)c2)cc1OC` [Compound 214, N-{4-Bromo-2-[1-(3-fluoro-phenyl)-ethylidene-hydrazinocarbonyl]-phenyl}-3,4-dimethoxy-benzamide], 3.95 µM. Same read-out and setting: with `C/C(=N\NC(=O)c1cc(Br)ccc1NC(=O)c1cccnc1)c1cccc(C)c1` [Compound 215, N-[4-Bromo-2-(1-m-toluyl-ethylidene-hydrazinocarbonyl)-phenyl]-nicotinamide] the figure was below 3 µM. As to `C/C(=N\NC(=O)c1cc(Br)ccc1NC(=O)c1cccnc1)c1ccc(C)cc1` [Compound 216, N-[4-Bromo-2-(1-p-toluyl-ethylidene-hydrazinocarbonyl)-phenyl]-nicotinamide], the IC50 worked out at 21.8 µM.

Regarding `C/C(=N\NC(=O)c1cc(Cl)ccc1NC(=O)c1cccnc1)c1ccc(C)cc1` [Compound 217, N-[4-Chloro-2-(1-p-toluyl-ethylidene-hydrazinocarbonyl)-phenyl]-nicotinamide], the half-inhibitory concentration (IC50) was found to be 11.2 µM.

On to `Cc1cc(/C=N/NC(=O)c2ccccc2NC(=O)c2cccnc2)oc1C` [Compound 218, N-[2-(4,5-Dimethyl-furan-2-ylmethylene-hydrazinocarbonyl)-phenyl]-nicotinamide], for which the IC50 is 4.05 µM. Consider `Cc1cc(/C=N/NC(=O)c2ccccc2NC(=O)c2ccncc2)oc1C` [Compound 219, N-[2-(4,5-Dimethyl-furan-2-ylmethylene-hydrazinocarbonyl)-phenyl]-isonicotinamide], for which the concentration for half-maximal inhibition (IC50) was determined as 9.07 µM. As for `Cc1cc(/C=N/NC(=O)c2cc(Br)ccc2NC(=O)c2cccnc2)oc1C` [Compound 220, N-[4-Bromo-2-(4,5-dimethyl-furan-2-ylmethylene-hydrazinocarbonyl)-phenyl]-nicotinamide], the half-maximal inhibitory concentration (IC50) was 9.42 µM. Still for that read-out and setting: with `Cc1cc(/C=N/NC(=O)c2cc(Br)ccc2NC(=O)c2ccncc2)oc1C` [Compound 221, N-[4-Bromo-2-(4,5-dimethyl-furan-2-ylmethylene-hydrazinocarbonyl)-phenyl]-isonicotinamide] the figure was 9.51 µM. Take `Cc1cc(/C=N/NC(=O)c2cc(Cl)ccc2NC(=O)c2cccnc2)oc1C` [Compound 222, N-[4-Chloro-2-(4,5-dimethyl-furan-2-ylmethylene-hydrazinocarbonyl)-phenyl]-nicotinamide]: the IC50 came to 8.86 µM. As to `Cc1cc(/C=N/NC(=O)c2cc(Cl)ccc2NC(=O)c2ccncc2)oc1C` [Compound 223, N-[4-Chloro-2-(4,5-dimethyl-furan-2-ylmethylene-hydrazinocarbonyl)-phenyl]-isonicotinamide], the IC50 is 11.3 µM. For `O=C(Nc1ccccc1C(=O)N/N=C/c1ccccc1)c1ccccc1` [Compound 224, N-[2-(Benzylidene-hydrazinocarbonyl)-phenyl]-benzamide], the IC50 worked out at 20 µM. On the same count and under the same terms, with `O=C(Nc1ccccc1C(=O)N/N=C/c1ccccc1F)c1ccccc1` [Compound 225, N-[2-(2-Fluoro-benzylidene-hydrazinocarbonyl)-phenyl]-benzamide] the figure was 61 µM. Same read-out and setting: with `O=C(Nc1ccccc1C(=O)N/N=C/c1cccc(F)c1)c1ccccc1` [Compound 226, N-[2-(3-Fluoro-benzylidene-hydrazinocarbonyl)-phenyl]-benzamide] the figure was 1.69 µM. Regarding `COc1ccc(C(=O)Nc2cc(OC)c(OC)cc2C(=O)N/N=C/c2ccccc2)cc1OC` [Compound 227, N-[2-(Benzylidene-hydrazinocarbonyl)-4,5-dimethoxy-phenyl]-3,4-dimethoxy-benzamide], the half-inhibitory concentration (IC50) was 7.4 µM. Regarding `O=C(Nc1ccccc1C(=O)N/N=C/c1ccccc1Br)c1ccccc1` [Compound 228, N-[2-(2-Bromo-benzylidene-hydrazinocarbonyl)-phenyl]-benzamide], the IC50 was 22.5 µM.

On to `Cc1ccccc1/C=N/NC(=O)c1ccccc1NC(=O)c1ccccc1` [Compound 229, N-[2-(2-Methyl-benzylidene-hydrazinocarbonyl)-phenyl]-benzamide], for which the IC50 is 6.32 µM. `COc1ccc(C(=O)Nc2cc(OC)c(OC)cc2C(=O)N/N=C/c2ccccc2C)cc1OC` [Compound 230, N-[4,5-Dimethoxy-2-(2-methyl-benzylidene-hydrazinocarbonyl)-phenyl]-3,4-dimethoxy-benzamide] showed an inhibition at 300 µM of 50.4%. On to `COc1ccc(C(=O)Nc2ccccc2C(=O)N/N=C/c2ccccc2Cl)cc1OC` [Compound 231, N-[2-(2-Chloro-benzylidene-hydrazinocarbonyl)-phenyl]-3,4-dimethoxy-benzamide], for which the inhibition at 300 µM turned out to be 32.8%. The same measure, in the same setting: as for `COc1ccc2cc(/C=N/NC(=O)c3ccccc3NC(=O)c3ccc(OC)c(OC)c3)ccc2c1` [Compound 232, 3,4-Dimethoxy-N-[2-(6-methoxy-naphthalen-2-ylmethylene-hydrazinocarbonyl)-phenyl]-benzamide], the figure is 44.9%; as for `COc1ccc(C(=O)Nc2ccccc2C(=O)N/N=C/c2ccc(-c3ccccc3)cc2)cc1OC` [Compound 233, N-[2-(Biphenyl-4-ylmethylene-hydrazinocarbonyl)-phenyl]-3,4-dimethoxy-benzamide], 33.6%; as for `COc1ccc(C(=O)Nc2ccccc2C(=O)N/N=C/c2ccc(Br)cc2)cc1OC` [Compound 234, N-[2-(4-Bromo-benzylidene-hydrazinocarbonyl)-phenyl]-3,4-dimethoxy-benzamide], 37.9%. On to `O=C(Nc1ccccc1C(=O)N/N=C/C=C/c1ccccc1)c1ccccc1` [Compound 235, N-[2-(3-Phenyl-allylidene-hydrazinocarbonyl)-phenyl]-benzamide], for which 300 µM produced 47.9% inhibition.
